# Measurements from PubChem BioAssay AID1648 (Sanford-Burnham Center for Chemical Genomics, 2009).
# The source made the active and inactive calls. The rule behind the calls is not given here.
# Molecular target: Serine/threonine-protein kinase mTOR (Homo sapiens) (UniProt P42345)
# Test: binders of mTOR FRB domain, biophysical, NMR (AID 1648)
# Details: NMR binding to FRB domain, chemical shift
# Chain of Serine/threonine-protein kinase mTOR (Homo sapiens) (P42345 2015-2114): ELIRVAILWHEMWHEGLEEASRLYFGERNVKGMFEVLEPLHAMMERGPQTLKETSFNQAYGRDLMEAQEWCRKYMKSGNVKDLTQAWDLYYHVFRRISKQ
row,SMILES,Kd
1,COc1cc([C@@H]2c3cc4c(c(O)c3C[C@H]3COC(=O)[C@@H]32)OCO4)cc(OC)c1OC,> 4 mM (inactive)
2,COC(=O)C1=CO[C@@H](O[C@@H]2O[C@H](CO)[C@@H](O)[C@H](O)[C@H]2O)[C@@H]2[C@@H](C)[C@@H](O)C[C@H]12,> 4 mM (inactive)
3,C=CCn1c(N)c(C(=O)N2CCOCC2)sc1=S,> 4 mM (inactive)
4,Oc1ccccc1C(=S)N1CCCCCC1,> 4 mM (inactive)
5,CCN1CCc2c(sc(N)c2C(N)=O)C1,> 4 mM (inactive)
6,CS(=O)(=O)N1CCN(C(=O)c2ccccc2)C1,> 4 mM (inactive)
7,O=c1c2ccccc2nc2n1CCS2,> 4 mM (inactive)
8,Nc1cncc(C(=O)O)c1,> 4 mM (inactive)
9,CC(C)=CC1C(CO)C1(C)C (configuration not stated),> 4 mM (inactive)
10,Cc1occc1C(=O)NCc1ccccn1,> 4 mM (inactive)
11,Cc1cccc(NC(=O)c2ccc(=O)[nH]n2)c1,> 4 mM (inactive)
12,Fc1ccc(F)c(CN2CCN(c3ncccn3)CC2)c1,> 4 mM (inactive)
13,Cc1n[nH]c(=S)n1-c1ccc(C(=O)O)cc1,> 4 mM (inactive)
14,CC(C)CCCC(C)C1CCC2C3C[C@@H](O)[C@@]4(O)C[C@@H](O)CC[C@]4(C)C3CC[C@]12C (some centres not stated),> 4 mM (inactive)
15,[O-][n+]1onc2c1CCc1c-2nn(-c2ccccc2)[n+]1[O-],> 4 mM (inactive)
16,NCc1c[nH]c2ccccc12,> 4 mM (inactive)
17,O=C(CCc1ccc(O)cc1)c1c(O)cc(O)cc1O[C@@H]1O[C@H](CO)[C@@H](O)[C@H](O)[C@H]1O,> 4 mM (inactive)
18,CC(C)c1ccc2c(c1)CCC1[C@](C)(CN)CCC[C@]21C (some centres not stated),> 4 mM (inactive)
19,C=C1C2CC[C@@]3(C)[C@H](c4ccoc4)OC(=O)C[C@]13O[C@H]1CC(O)C(C)(C)C(CC(=O)OC)[C@@]21C (some centres not stated),> 4 mM (inactive)
20,O=C(NCN1CCOCC1)c1cccnc1,> 4 mM (inactive)
21,CNC(=O)C1=NCCCc2cc(OC)c(OC)cc21,> 4 mM (inactive)
22,O=C(CC1NCCNC1=O)Nc1ccccc1 (configuration not stated),> 4 mM (inactive)

row,SMILES,Kd
1,COc1ccc2c(c1)O[C@H]1c3ccc(OC)cc3OC[C@@H]21,> 4 mM (inactive)
2,COC(=O)[C@@H]1OC(=O)C2OC23[C@@]1(C)CCC1[C@@]2(C)CCC(=O)C(C)(C)C2C[C@@H](OC(C)=O)[C@]13C (some centres not stated),> 4 mM (inactive)
3,ON=c1ccc2nc3ccccc3nc2cc1,> 4 mM (inactive)
4,COc1ccc(C(N)=O)cc1NC(C)=O,> 4 mM (inactive)
5,Nc1nnc(Cc2ccc(Cl)cc2)s1,> 4 mM (inactive)
6,COCC(=O)Nc1cccc(Br)c1,> 4 mM (inactive)
7,O=C(O)CCc1c[nH]c2ccccc12,> 4 mM (inactive)
8,Cc1ccc(C)n1-c1ccc(C(=O)N2CCOCC2)cc1,> 4 mM (inactive)
9,O=C1CCc2ccccc2CN1,> 4 mM (inactive)
10,O=C(Nc1cnccn1)c1cccnc1,> 4 mM (inactive)
11,COc1cc(OC)c2c(=O)c(OC)c(-c3ccc(OC)c(OC)c3)oc2c1,> 4 mM (inactive)
12,CCCNC(=O)CSc1nnc(C)s1,> 4 mM (inactive)
13,CS(=O)(=O)NN=C1CCCCC1,> 4 mM (inactive)
14,CN(C)c1n[nH]c(=O)[nH]c1=O,> 4 mM (inactive)
15,Cc1cc(C)n2nc(NCc3ccccc3)nc2n1,> 4 mM (inactive)
16,CN1CCC(NC(=O)c2ccccc2[N+](=O)[O-])CC1,> 4 mM (inactive)
17,COc1ccc(-c2coc3c(O)c(OC)ccc3c2=O)cc1,> 4 mM (inactive)
18,Cc1cc(=O)n2[nH]c(C)cc2n1,> 4 mM (inactive)
19,S=C(Nc1ccccc1)Nc1nncs1,> 4 mM (inactive)
20,Fc1cccc(F)c1CN1CCN(c2ncccn2)CC1,> 4 mM (inactive)
21,CCOC(=O)c1c[nH]c2c(F)cccc2c1=O,> 4 mM (inactive)
22,O=c1sc2ccccc2n1CN1CCOCC1,> 4 mM (inactive)

row,SMILES,Kd
1,NS(=O)(=O)c1ccc(NC(=O)C(F)(F)F)cc1,> 4 mM (inactive)
2,COc1cc(-c2coc3cc(OC)c(OC)c(OC)c3c2=O)cc(OC)c1OC,> 4 mM (inactive)
3,COc1cc(/C=C2\SC(=S)NC2=O)ccc1O,> 4 mM (inactive)
4,Cc1ccc(CCC(N)=O)o1,> 4 mM (inactive)
5,Cc1cc(C)c2nncn2n1,> 4 mM (inactive)
6,Oc1ccccc1N1CCOCC1,> 4 mM (inactive)
7,Cc1cc(C(=O)N2CCCCCC2)cs1,> 4 mM (inactive)
8,O=C(O)c1ccc2occc2c1,> 4 mM (inactive)
9,O=C1NC(=S)NC(=O)C1=Cc1cccs1,> 4 mM (inactive)
10,OCc1c[nH]c2ccccc12,> 4 mM (inactive)
11,Cc1cc(NC(=O)CS(=O)(=O)c2ccccc2)no1,> 4 mM (inactive)
12,NCc1oc(-c2ccccc2)cc1C(=O)O,> 4 mM (inactive)
13,CCOC(=O)C1CCN(c2ncnc3nc[nH]c23)CC1,> 4 mM (inactive)
14,CN=C(C)c1c(O)n(C)c(=S)n(C)c1=O,> 4 mM (inactive)
15,O=c1[nH]c2c(c(=O)n1C1CCCCC1)CCC2,> 4 mM (inactive)
16,Cc1nn(-c2ccccc2C(=O)O)c(=O)c2ccccc12,> 4 mM (inactive)
17,CCc1cc(=O)[nH]c(SCC(=O)NCCOC)n1,> 4 mM (inactive)
18,CSc1ccn(CCC(=O)O)c(=O)n1,> 4 mM (inactive)
19,Cc1csc2nc3ccccc3c(=O)n12,> 4 mM (inactive)
20,Cc1n[nH]c(=S)[nH]c1=O,> 4 mM (inactive)
21,O=C(NCc1ccccc1Cl)c1cnn2cccnc12,> 4 mM (inactive)
22,O=S(=O)(O)c1cc[n+]([O-])cc1,> 4 mM (inactive)

row,SMILES,Kd
1,CC1CN=C(Nc2ccccc2)S1 (configuration not stated),> 4 mM (inactive)
2,COC(=O)CSc1n[nH]c(N)n1,> 4 mM (inactive)
3,O=C1NC(=O)C(Cc2ccccc2)C(=O)N1,> 4 mM (inactive)
4,Cc1cc[n+](-c2nc([O-])sc2C=O)cc1,> 4 mM (inactive)
5,CC(=O)Oc1ccc(-c2cc(=O)c3c(OC(C)=O)cc(OC(C)=O)cc3o2)cc1,> 4 mM (inactive)
6,O=C(NCc1cccc(Cl)c1)c1ccco1,> 4 mM (inactive)
7,CC(=O)NCCc1cc2ccc(C)c(C)c2[nH]c1=O,> 4 mM (inactive)
8,O=C(NC1CCS(=O)(=O)C1)c1cccs1 (configuration not stated),> 4 mM (inactive)
9,S=c1oc(-c2ccncc2)nn1CCc1ccncc1,> 4 mM (inactive)
10,COC(=O)C1Cc2ccccc2N1 (configuration not stated),> 4 mM (inactive)
11,COc1c(C(C)C)oc2cc3oc(=O)ccc3cc12,> 4 mM (inactive)
12,O=C(Nc1ccccn1)C(=O)N1CCCC1,> 4 mM (inactive)
13,O=C(NC1=NCCS1)c1ccc(Cl)s1,> 4 mM (inactive)
14,COC(=O)c1ccc(N2CCOCC2)nc1,> 4 mM (inactive)
15,CCOC(=O)C1CN(C)CCN1C (configuration not stated),> 4 mM (inactive)
16,Cc1cc(C)c2ccc[n+]([O-])c2c1O,> 4 mM (inactive)
17,COc1cc(OC)c2c(=O)c(-c3ccc4c(c3)OCO4)coc2c1,> 4 mM (inactive)
18,COC(=O)c1cc2ccccc2cn1,> 4 mM (inactive)
19,O=C(O)CCN1CCc2ccccc2C1c1ccncc1 (configuration not stated),> 4 mM (inactive)
20,COc1ccc2[nH]c(O)c(NC(C)=O)c2c1,> 4 mM (inactive)
21,O=c1[nH]c(=S)c2c(n1-c1ccccc1)CCC2,> 4 mM (inactive)
